{"source": "patent US20250352520A1", "about": "“USE OF DEXPRAMIPEXOLE FOR THE TREATMENT OF EOSINOPHILIC COPD” (Areteia Therapeutics, Inc., priority 2024, published 2025)", "settings": "Week 8; >=50% AEC reduction at Week 16", "data": [{"smiles": "CCCN[C@@H]1CCc2nc(N)sc2C1", "note": "[Dexpramipexole, (6R)-2-amino-4,5,6,7-tetrahydro-6-(propylamino)benzothiazole]", "values": [{"measurement": "Pre-BD FEF25-75 % change from baseline, Max", "result": 38, "unit": "%"}, {"measurement": "Pre-BD FEF25-75 % change from baseline, Mean ± SD", "result": "10.2 ± 27.88", "unit": "%"}, {"measurement": "Pre-BD FEF25-75 % change from baseline, Median", "result": 9.5, "unit": "%"}, {"measurement": "Pre-BD FEF25-75 % change from baseline, Min", "result": "−17", "unit": "%"}, {"measurement": "Pre-BD FEF25-75 % change from baseline, Q1", "result": "−17", "unit": "%"}, {"measurement": "Pre-BD FEF25-75 % change from baseline, Q3", "result": 38, "unit": "%"}, {"measurement": "Pre-BD FEF25-75 Observed, Max", "result": 1010, "unit": "mL/s"}, {"measurement": "Pre-BD FEF25-75 Observed, Mean ± SD", "result": "666.7 ± 398.29", "unit": "mL/s"}, {"measurement": "Pre-BD FEF25-75 Observed, Median", "result": 760.0, "unit": "mL/s"}, {"measurement": "Pre-BD FEF25-75 Observed, Min", "result": 230, "unit": "mL/s"}, {"measurement": "Pre-BD FEF25-75 Observed, Q1", "result": 230, "unit": "mL/s"}, {"measurement": "Pre-BD FEF25-75 Observed, Q3", "result": 1010, "unit": "mL/s"}, {"measurement": "Pre-BD FEF25-75 change from baseline, Max", "result": 280, "unit": "mL/s"}, {"measurement": "Pre-BD FEF25-75 change from baseline, Mean ± SD", "result": "46.7 ± 221.21", "unit": "mL/s"}, {"measurement": "Pre-BD FEF25-75 change from baseline, Median", "result": 20.0, "unit": "mL/s"}, {"measurement": "Pre-BD FEF25-75 change from baseline, Min", "result": -160, "unit": "mL/s"}, {"measurement": "Pre-BD FEF25-75 change from baseline, Q1", "result": -160, "unit": "mL/s"}, {"measurement": "Pre-BD FEF25-75 change from baseline, Q3", "result": 280, "unit": "mL/s"}, {"measurement": "Pre-BD FEV1 % change from baseline, Max", "result": 53, "unit": "%"}, {"measurement": "Pre-BD FEV1 % change from baseline, Mean ± SD", "result": "18.7 ± 30.56", "unit": "%"}, {"measurement": "Pre-BD FEV1 % change from baseline, Median", "result": 8.3, "unit": "%"}, {"measurement": "Pre-BD FEV1 % change from baseline, Min", "result": "−5", "unit": "%"}, {"measurement": "Pre-BD FEV1 % change from baseline, Q1", "result": "−5", "unit": "%"}, {"measurement": "Pre-BD FEV1 % change from baseline, Q3", "result": 53, "unit": "%"}, {"measurement": "Pre-BD FEV1 Observed, Max", "result": 1990, "unit": "mL"}, {"measurement": "Pre-BD FEV1 Observed, Mean ± SD", "result": "1453.3 ± 616.47", "unit": "mL"}, {"measurement": "Pre-BD FEV1 Observed, Median", "result": 1590.0, "unit": "mL"}, {"measurement": "Pre-BD FEV1 Observed, Min", "result": 780, "unit": "mL"}, {"measurement": "Pre-BD FEV1 Observed, Q1", "result": 780, "unit": "mL"}, {"measurement": "Pre-BD FEV1 Observed, Q3", "result": 1990, "unit": "mL"}, {"measurement": "Pre-BD FEV1 change from baseline, Max", "result": 690, "unit": "mL"}, {"measurement": "Pre-BD FEV1 change from baseline, Mean ± SD", "result": "220.0 ± 413.88", "unit": "mL"}, {"measurement": "Pre-BD FEV1 change from baseline, Median", "result": 60.0, "unit": "mL"}, {"measurement": "Pre-BD FEV1 change from baseline, Min", "result": -90, "unit": "mL"}, {"measurement": "Pre-BD FEV1 change from baseline, Q1", "result": -90, "unit": "mL"}, {"measurement": "Pre-BD FEV1 change from baseline, Q3", "result": 690, "unit": "mL"}, {"measurement": "Pre-BD FVC % change from baseline, Max", "result": 24, "unit": "%"}, {"measurement": "Pre-BD FVC % change from baseline, Mean ± SD", "result": "8.8 ± 13.54", "unit": "%"}, {"measurement": "Pre-BD FVC % change from baseline, Median", "result": 3.3, "unit": "%"}, {"measurement": "Pre-BD FVC % change from baseline, Min", "result": "−1", "unit": "%"}, {"measurement": "Pre-BD FVC % change from baseline, Q1", "result": "−1", "unit": "%"}, {"measurement": "Pre-BD FVC % change from baseline, Q3", "result": 24, "unit": "%"}, {"measurement": "Pre-BD FVC Observed, Max", "result": 3130, "unit": "mL"}, {"measurement": "Pre-BD FVC Observed, Mean ± SD", "result": "2626.7 ± 477.53", "unit": "mL"}, {"measurement": "Pre-BD FVC Observed, Median", "result": 2570.0, "unit": "mL"}, {"measurement": "Pre-BD FVC Observed, Min", "result": 2180, "unit": "mL"}, {"measurement": "Pre-BD FVC Observed, Q1", "result": 2180, "unit": "mL"}, {"measurement": "Pre-BD FVC Observed, Q3", "result": 3130, "unit": "mL"}, {"measurement": "Pre-BD FVC change from baseline, Max", "result": 610, "unit": "mL"}, {"measurement": "Pre-BD FVC change from baseline, Mean ± SD", "result": "216.7 ± 344.29", "unit": "mL"}, {"measurement": "Pre-BD FVC change from baseline, Median", "result": 70.0, "unit": "mL"}, {"measurement": "Pre-BD FVC change from baseline, Min", "result": -30, "unit": "mL"}, {"measurement": "Pre-BD FVC change from baseline, Q1", "result": -30, "unit": "mL"}, {"measurement": "Pre-BD FVC change from baseline, Q3", "result": 610, "unit": "mL"}, {"measurement": "Pre-BD Peak Flow % change from baseline, Max", "result": 90, "unit": "%"}, {"measurement": "Pre-BD Peak Flow % change from baseline, Mean ± SD", "result": "25.2 ± 58.36", "unit": "%"}, {"measurement": "Pre-BD Peak Flow % change from baseline, Median", "result": 9.6, "unit": "%"}, {"measurement": "Pre-BD Peak Flow % change from baseline, Min", "result": "−24", "unit": "%"}, {"measurement": "Pre-BD Peak Flow % change from baseline, Q1", "result": "−24", "unit": "%"}, {"measurement": "Pre-BD Peak Flow % change from baseline, Q3", "result": 90, "unit": "%"}, {"measurement": "Pre-BD Peak Flow Observed, Max", "result": 298, "unit": "L/min"}, {"measurement": "Pre-BD Peak Flow Observed, Mean ± SD", "result": "197.7 ± 87.79", "unit": "L/min"}, {"measurement": "Pre-BD Peak Flow Observed, Median", "result": 160.0, "unit": "L/min"}, {"measurement": "Pre-BD Peak Flow Observed, Min", "result": 135, "unit": "L/min"}, {"measurement": "Pre-BD Peak Flow Observed, Q1", "result": 135, "unit": "L/min"}, {"measurement": "Pre-BD Peak Flow Observed, Q3", "result": 298, "unit": "L/min"}, {"measurement": "Pre-BD Peak Flow change from baseline, Max", "result": 141, "unit": "L/min"}, {"measurement": "Pre-BD Peak Flow change from baseline, Mean ± SD", "result": "37.7 ± 93.77", "unit": "L/min"}, {"measurement": "Pre-BD Peak Flow change from baseline, Median", "result": 14.0, "unit": "L/min"}, {"measurement": "Pre-BD Peak Flow change from baseline, Min", "result": -42, "unit": "L/min"}, {"measurement": "Pre-BD Peak Flow change from baseline, Q1", "result": -42, "unit": "L/min"}, {"measurement": "Pre-BD Peak Flow change from baseline, Q3", "result": 141, "unit": "L/min"}]}]}
